Laboratory results taken from patent publication US20050049198A1, “Method of modulating the activity of calcium channels in cardiac cells and reagents therefor” (priority 2001, published 2005).
“Also recorded” adds a separate entry of the source. Where no end group is shown, it is not given here. [ ]: non-standard residue; d: D form.

What was measured:
cardiac RyR2 channel = test: Single channel activity of cardiac RyR2 channels in lipid bilayers; format: biochemical, sheep; settings: for effect on cardiac RyR2 channel activity: cis 10^−7M Ca2+
Description: SR vesicles were isolated from sheep heart as described by Layer et al. (1995, J. Membr. Biol. 147:7-22).
Experiments were carried out at 20° C. to 25° C., essentially according to Ahern et al. (1994, FEBS Lett. 352:369-374) and Layer et al. (1995, J. Membr. Biol. 147:7-22). Bilayers were formed from phosphatidylethanolamine, phosphatidylserine and phosphatidylcholine (5:3:2 w/w/w) (Avanti Polar Lipids, Alabaster, Ala.) across an aperture with a diameter of […] in the wall of a 1.0 ml Delrin cup (Cadillac Plastics, Australia). Terminal cisternae (TC) vesicles (final concentration, 10 μg/ml) and drugs were added to the cytoplasmic (i.e. cis) chamber. The bilayer potential was controlled, and single channel activity recorded, using an Axopatch 200A amplifier (Axon Instruments, Foster City, Calif.). For experimental purposes, the cis chamber was held at ground and the voltage of the lumen (i.e. trans) chamber controlled. Bilayer potential is expressed in the conventional way as Vcis−Vtrans, (i.e. Vcytoplasm−Vlumen).
Bilayers were formed as described above and vesicles were incorporated into the bilayer using a cis solution containing 230 mM Cs methanesulphonate (MS), 20 mM CsCl, 1 mM CaCl2 and 10 mM N-tris[hydroxymethyl]methyl-2-aminoethanesulfonic acid (TES, pH 7.4 with CsOH), and a trans solution containing 30 mM Cs MS, 20 mM CsCl, 1 mM CaCl2 and 10 mM TES (pH7.4).
To prevent incorporation of multiple channels into the bilayer, the cis solution was replaced by perfusion of the cis chamber when channel activity was observed. The cis perfusion solution was identical to the initial cis solution, except that the [Ca^2+] was 3×10^−7M, buffered using 1 mM BAPTA. CsMS (200 mM) was added to the trans chamber following channel incorporation to produce symmetrical solutions.
Bilayer potential was changed every 30 s, over 2 min following each addition of peptide to the cis chamber. Control activity was recorded for 2 min after addition of 200 mM CsMS to the trans chamber. Activity was then recorded for 2 min after cis addition of each aliquot of peptide (six different peptide concentrations were examined in each channel). Peptides were perfused out of the cis chamber, and the recovery recorded. Channels were finally exposed to 30 μM ruthenium red.
Currents were filtered at 1 kHz (8-pole low pass Bessel, −3 dB) and digitized at 5 kHz. Analysis of single channel records (using Channel 2, developed by P W Gage and M Smith) yielded channel open probability (Po), frequency of events (Fo), open times, closed times and mean open or closed times (To or Tc) as well as mean current (I′). The event discriminator was set above the baseline noise at ˜20% of the maximum current, rather than the usual 50%, and so openings to both sub conductance and maximum conductance levels were included in the analysis. Channel activity was analyzed over two 30 s periods of continuous activity at +40 mV and two 30 s periods of continuous activity at −40 mV.
The Ca^2+ concentration in the cis solution was either buffered at 100 nM or was adjusted to 100 μM by adding an CaCl2 to the cis solution in the absence of BAPTA.

[1] = tested on: RyR channels of cardiac SR vesicles; test: Ca2+ release from cardiac SR vesicles; format: biochemical, sheep; settings: for initial rate of Ca2+ release, peptide alone: 30 μM and 50 μM peptide, no additional activating factors; for Ca2+-activated Ca2+ release / caffeine-activated Ca2+ release: 20 μM Ca2+ or 2 mM caffeine plus peptide; for rate of Ca2+ release in the absence of activating Ca2+ or caffeine: high concentrations of >30 μM peptide
Description: Extravesicular [Ca^2+] was monitored at 710 nm using either a Cary 50 or Cary 100 spectrophotometer. […] Vesicles were loaded with Ca^2+ by 4 additions of 3 μl aliquots of 5 mM CaCl2, to a final concentration of 7.5 μM Ca^2+. Thapsigargin (200 nM) was then added to block the SR Ca^2+ ATPase. Finally the peptides were added either alone, or with 20 μM Ca^2+ or 2 mM caffeine. The rate of Ca^2+ release in the presence of thapsigargin was measured just before addition of the activating agents and initial rates of Ca^2+ release were measured immediately after addition of the activating agents. The specific blocker of RyR activity, […] ruthenium red, was then added to confirm that Ca^2+ release was through RyR channels. The Ca^+ ionophore A23187 (3 μg/ml) was added at the end of the experiment to determine the amount of Ca^2+ remaining in the SR vesicles. When Ca^2+ release was complete, the Ca^2+ transient following addition of the ionophore, was indicative of the fraction of vesicles containing Ca^2+ that could not be released through RyR channel (presumably vesicles from longitudinal SR that lack RyR channels). […] Experiments were repeated on vesicles isolated from 3 different sheep heart preparations.

cardiac SR = cardiac SR (Homo sapiens, UniProt Q92736); settings: cited from earlier work
cardiac RyR2 channels = cardiac RyR2 channels (Homo sapiens, UniProt Q92736); settings: cited from earlier work
RyR2 = RyR2 (Homo sapiens, UniProt Q92736); settings: cited from earlier work
[2] = molecular target: cardiac ryanodine receptor (RyR2) calcium channel from sheep heart SR vesicles (sheep, UniProt A0ACI6Q5I6 1-4956); test: cell-based or functional assay

Chain of RyR2 (Q92736 whole entry, species assumed): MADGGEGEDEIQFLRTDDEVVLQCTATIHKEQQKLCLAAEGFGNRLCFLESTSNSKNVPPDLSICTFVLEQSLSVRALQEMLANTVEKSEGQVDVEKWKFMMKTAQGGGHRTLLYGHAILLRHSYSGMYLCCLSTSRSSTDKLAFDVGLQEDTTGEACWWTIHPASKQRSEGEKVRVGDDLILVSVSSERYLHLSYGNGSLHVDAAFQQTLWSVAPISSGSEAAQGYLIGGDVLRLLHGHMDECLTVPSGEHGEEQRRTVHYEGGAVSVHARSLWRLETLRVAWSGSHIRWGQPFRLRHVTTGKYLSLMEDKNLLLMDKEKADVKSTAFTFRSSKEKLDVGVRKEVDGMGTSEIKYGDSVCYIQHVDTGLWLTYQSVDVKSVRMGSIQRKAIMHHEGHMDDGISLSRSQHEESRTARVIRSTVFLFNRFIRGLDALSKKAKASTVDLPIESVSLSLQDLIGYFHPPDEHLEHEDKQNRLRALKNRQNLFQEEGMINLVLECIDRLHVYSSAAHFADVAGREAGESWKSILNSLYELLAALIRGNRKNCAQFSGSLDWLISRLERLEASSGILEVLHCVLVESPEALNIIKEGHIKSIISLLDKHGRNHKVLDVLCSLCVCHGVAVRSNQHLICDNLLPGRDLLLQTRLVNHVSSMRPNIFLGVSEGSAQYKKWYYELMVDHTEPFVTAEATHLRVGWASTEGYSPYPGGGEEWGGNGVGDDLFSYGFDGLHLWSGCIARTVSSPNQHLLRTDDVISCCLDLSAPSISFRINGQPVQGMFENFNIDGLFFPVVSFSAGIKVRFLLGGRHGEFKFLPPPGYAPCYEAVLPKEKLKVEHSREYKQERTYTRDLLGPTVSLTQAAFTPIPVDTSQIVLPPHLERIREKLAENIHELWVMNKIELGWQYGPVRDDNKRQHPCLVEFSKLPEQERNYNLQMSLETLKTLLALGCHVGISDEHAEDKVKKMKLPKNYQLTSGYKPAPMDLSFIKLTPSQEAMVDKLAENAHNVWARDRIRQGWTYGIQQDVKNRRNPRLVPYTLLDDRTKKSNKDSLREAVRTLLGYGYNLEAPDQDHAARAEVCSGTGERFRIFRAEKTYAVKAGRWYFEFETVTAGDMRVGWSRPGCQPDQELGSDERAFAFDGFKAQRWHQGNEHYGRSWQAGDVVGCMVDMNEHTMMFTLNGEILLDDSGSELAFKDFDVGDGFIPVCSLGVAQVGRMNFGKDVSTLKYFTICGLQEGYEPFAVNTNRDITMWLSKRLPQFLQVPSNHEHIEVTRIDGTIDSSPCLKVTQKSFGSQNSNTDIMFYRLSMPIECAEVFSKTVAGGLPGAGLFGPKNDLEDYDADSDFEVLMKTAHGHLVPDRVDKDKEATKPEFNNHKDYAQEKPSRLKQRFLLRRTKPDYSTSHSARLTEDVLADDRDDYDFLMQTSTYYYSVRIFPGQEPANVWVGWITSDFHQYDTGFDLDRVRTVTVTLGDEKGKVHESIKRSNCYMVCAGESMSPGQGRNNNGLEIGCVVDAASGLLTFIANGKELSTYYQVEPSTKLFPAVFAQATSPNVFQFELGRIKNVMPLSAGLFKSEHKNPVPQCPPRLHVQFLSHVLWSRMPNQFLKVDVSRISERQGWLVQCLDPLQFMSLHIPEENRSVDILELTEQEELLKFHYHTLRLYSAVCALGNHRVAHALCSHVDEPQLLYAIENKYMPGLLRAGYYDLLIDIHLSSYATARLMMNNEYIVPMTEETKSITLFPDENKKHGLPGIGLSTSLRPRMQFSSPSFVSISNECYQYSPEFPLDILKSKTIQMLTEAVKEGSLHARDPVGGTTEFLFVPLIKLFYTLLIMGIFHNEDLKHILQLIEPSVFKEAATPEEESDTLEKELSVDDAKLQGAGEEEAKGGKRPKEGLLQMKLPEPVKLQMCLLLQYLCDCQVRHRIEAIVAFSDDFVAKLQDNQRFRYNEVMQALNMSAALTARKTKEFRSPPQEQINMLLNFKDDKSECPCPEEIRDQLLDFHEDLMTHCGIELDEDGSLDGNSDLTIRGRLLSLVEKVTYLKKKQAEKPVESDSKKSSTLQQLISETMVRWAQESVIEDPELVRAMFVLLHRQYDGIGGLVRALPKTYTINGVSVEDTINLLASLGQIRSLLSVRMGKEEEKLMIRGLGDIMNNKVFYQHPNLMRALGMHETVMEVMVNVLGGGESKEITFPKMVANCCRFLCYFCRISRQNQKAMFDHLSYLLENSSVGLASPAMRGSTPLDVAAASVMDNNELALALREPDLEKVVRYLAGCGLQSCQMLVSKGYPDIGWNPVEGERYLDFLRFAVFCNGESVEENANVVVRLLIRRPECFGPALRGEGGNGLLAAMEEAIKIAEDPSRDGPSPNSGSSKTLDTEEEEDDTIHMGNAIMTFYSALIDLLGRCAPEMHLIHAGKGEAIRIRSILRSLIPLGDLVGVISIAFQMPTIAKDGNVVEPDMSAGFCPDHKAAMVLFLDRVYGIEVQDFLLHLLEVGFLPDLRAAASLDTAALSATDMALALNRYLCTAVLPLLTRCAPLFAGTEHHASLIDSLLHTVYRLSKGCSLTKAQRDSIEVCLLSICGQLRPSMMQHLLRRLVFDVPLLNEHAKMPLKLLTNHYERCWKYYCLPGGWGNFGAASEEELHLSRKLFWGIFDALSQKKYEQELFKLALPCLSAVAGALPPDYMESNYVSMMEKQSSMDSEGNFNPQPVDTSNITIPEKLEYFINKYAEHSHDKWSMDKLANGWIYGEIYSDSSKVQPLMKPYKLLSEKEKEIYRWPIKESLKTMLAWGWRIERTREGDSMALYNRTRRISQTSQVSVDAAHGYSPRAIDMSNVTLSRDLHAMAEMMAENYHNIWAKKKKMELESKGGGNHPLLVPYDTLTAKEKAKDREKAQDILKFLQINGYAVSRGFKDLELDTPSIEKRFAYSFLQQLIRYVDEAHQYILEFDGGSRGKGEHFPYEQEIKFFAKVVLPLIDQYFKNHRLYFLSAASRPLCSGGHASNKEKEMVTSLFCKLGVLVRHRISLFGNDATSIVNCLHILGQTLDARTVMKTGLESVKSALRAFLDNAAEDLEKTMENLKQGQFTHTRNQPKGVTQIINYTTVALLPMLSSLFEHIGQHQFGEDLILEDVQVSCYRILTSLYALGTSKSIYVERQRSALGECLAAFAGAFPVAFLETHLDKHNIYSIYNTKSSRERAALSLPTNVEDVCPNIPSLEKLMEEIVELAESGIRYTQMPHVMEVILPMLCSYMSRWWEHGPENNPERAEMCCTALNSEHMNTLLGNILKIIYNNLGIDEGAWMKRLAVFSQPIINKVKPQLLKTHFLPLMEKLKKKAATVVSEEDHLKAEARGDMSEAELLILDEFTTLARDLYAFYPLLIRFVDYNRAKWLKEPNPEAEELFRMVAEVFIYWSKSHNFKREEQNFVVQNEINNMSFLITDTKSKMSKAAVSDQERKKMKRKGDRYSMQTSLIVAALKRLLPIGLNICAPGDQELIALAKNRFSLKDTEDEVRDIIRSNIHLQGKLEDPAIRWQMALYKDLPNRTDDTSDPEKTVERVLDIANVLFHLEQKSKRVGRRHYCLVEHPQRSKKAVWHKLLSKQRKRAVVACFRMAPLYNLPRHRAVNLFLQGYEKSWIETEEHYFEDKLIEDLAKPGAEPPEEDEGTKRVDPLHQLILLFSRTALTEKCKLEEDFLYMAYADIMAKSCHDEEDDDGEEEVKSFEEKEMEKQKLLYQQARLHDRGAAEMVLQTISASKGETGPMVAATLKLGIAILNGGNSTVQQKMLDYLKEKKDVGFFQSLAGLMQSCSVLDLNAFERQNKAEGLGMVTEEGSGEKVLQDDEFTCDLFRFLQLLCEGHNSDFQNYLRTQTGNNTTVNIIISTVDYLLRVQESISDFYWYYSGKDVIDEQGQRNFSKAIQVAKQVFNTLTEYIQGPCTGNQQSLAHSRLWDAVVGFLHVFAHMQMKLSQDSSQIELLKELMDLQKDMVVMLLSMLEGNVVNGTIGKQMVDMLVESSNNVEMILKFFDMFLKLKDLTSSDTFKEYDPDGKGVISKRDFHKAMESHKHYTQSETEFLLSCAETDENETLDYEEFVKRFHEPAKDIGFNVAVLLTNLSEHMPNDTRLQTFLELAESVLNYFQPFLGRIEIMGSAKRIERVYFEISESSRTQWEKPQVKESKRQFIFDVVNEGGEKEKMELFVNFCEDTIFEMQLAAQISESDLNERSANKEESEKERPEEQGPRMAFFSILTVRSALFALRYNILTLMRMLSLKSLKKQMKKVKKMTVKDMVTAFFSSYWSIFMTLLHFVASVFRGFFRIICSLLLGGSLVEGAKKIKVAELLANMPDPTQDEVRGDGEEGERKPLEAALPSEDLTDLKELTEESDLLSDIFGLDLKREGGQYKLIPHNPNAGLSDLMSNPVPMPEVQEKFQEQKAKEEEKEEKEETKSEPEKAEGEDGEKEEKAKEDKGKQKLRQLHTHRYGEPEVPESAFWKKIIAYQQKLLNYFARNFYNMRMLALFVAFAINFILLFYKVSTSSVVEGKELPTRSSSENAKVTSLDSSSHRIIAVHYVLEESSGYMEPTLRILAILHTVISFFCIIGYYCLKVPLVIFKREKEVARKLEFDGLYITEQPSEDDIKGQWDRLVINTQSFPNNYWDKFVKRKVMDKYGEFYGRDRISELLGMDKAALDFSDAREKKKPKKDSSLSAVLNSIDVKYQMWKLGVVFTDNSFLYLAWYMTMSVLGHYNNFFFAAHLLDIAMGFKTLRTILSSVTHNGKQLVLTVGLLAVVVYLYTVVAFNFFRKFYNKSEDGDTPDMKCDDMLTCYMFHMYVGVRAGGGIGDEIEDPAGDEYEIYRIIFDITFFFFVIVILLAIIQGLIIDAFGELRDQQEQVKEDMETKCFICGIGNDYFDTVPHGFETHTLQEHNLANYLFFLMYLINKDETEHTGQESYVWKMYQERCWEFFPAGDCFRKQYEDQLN
Chain of cardiac SR (Q92736 whole entry): as the sequence (Q92736 whole entry, species assumed) above
Chain of cardiac RyR2 channels (Q92736 whole entry): as the sequence (Q92736 whole entry, species assumed) above

TSAQKAKAEERKRRKMSRGL [SEQ ID NO: 2, 20-mer peptide (Thr671 to Leu690) of the II-III cytoplasmic loop of human skeletal muscle DHPR]
bilayer samples with similar activation and inhibition (cardiac RyR2 channel): 8 out of 8 | lowest peptide concentration at which activation of cardiac RyR2 was observed (cardiac RyR2 channel): 1 nM | peptide concentration above which channel opening began to decline (cardiac RyR2 channel; +40 mV): above 100 nM | frequency of opening (cardiac RyR2 channel; +40 mV and −40 mV, after peptide addition to cis chamber): higher frequency of opening | normalized mean current (cardiac RyR2 channel; +40 mV, 10 nM peptide): doubled | channel activity (cardiac RyR2 channel; +40 mV, 65 nM peptide): increased; also recorded: mostly in the open configuration | channel openings (cardiac RyR2 channel; +40 mV, 10 μM peptide): only a few brief channel openings | channel configuration (cardiac RyR2 channel; +40 mV, 32.5 μM peptide): mostly in the closed configuration | normalized mean current at higher peptide concentrations (cardiac RyR2 channel; +40 mV, between about 10 μM and 50 μM peptide): fell dramatically | effect on cardiac RyR2 channel activity (cardiac RyR2 channel; +40 mV): increases and then decreases the activity | effect on cardiac RyR2 channel activity (cardiac RyR2 channel; +40 mV, listed as 20-mer peptide): strong inhibition | duration of channel openings (cardiac RyR2 channel; −40 mV, 10^−7M cis Ca, versus absence of peptide): prolonged channel openings | effect on cardiac RyR2 channel activity (cardiac RyR2 channel; −40 mV): increases the activity | effect on cardiac RyR2 channel activity (cardiac RyR2 channel; −40 mV, listed as 20-mer peptide): significant activation | channel open probability (Po) (cardiac RyR2 channel; −40 mV, particularly at 65 nM peptide): high open probability | RyR2 channel activity (cardiac RyR2 channel; −40 mV, peptide increased to 6.5 μM): fell slightly | channel openings (cardiac RyR2 channel; −40 mV, within 10 s of adding 65 nM peptide): channel openings increased | initial rate of Ca2+ release, peptide alone [1]: small increase | induction of Ca2+ release from cardiac SR (cardiac SR): not to induce | enhancement of [3H]ryanodine binding to cardiac RyR2 channels (cardiac RyR2 channels): not to induce Ca^2+ release from cardiac SR, or to enhance [^3H]ryanodine binding | binding to RyR2 (RyR2): binds

GLPDKTEEEKSVMAKKLEQK [peptide NB, non-specific peptide; the N-terminal portion of the B segment of the II-III loop, reference compound]
channel activity (cardiac RyR2 channel; 1 μM or 10 μM cis peptide, +40 mV or −40 mV): no modified channel activity

N.N.N.N.N.N.N.N.N.N.N.N.N.N.[Cl-].[Cl-].[Cl-].[Cl-].[Cl-].[Cl-].[O-2].[O-2].[Ru+3].[Ru+3].[Ru+4] [ruthenium red, reference compound]
effect on RyR channel (cardiac RyR2 channel; 30 μM, end of experiment): block the channel | effect on Ca2+ release ([1]; added after activating agents): terminated

TSAQKAKAEERKRRKMARDGL (TSAQKAKAEERKRRKMA[dR]GL) [SEQ ID NO: 10]
Ca2+-activated Ca2+ release / caffeine-activated Ca2+ release [1]: also enhanced | initial rate of Ca2+ release, peptide alone [1]: small increase | rate of Ca2+ release in the absence of activating Ca2+ or caffeine [1]: marginally enhanced

TSAQKAKAEERKRRKMARGL [SEQ ID NO: 8]
initial rate of Ca2+ release, peptide alone [1]: small increase

TRKSRLARGQKAKAKSEMRE [Peptide A1S, reference compound]
bilayers in which channel activity was reduced (cardiac RyR2 channel; 1 μM or 10 μM cis peptide): 2 out of 2 | cardiac RyR2 channel activity (cardiac RyR2 channel; 1 μM or 10 μM cis peptide): reduced cardiac RyR2 channel activity

TSAQKAKAEERKRRKMSRDGL (TSAQKAKAEERKRRKMS[dR]GL) [SEQ ID NO: 9]
channel activity (relative mean current) (cardiac RyR2 channel; 100 nM cis Ca2+): clearly enhanced | channel activity (cardiac RyR2 channel; 100 nM cis Ca2+, 10 nM peptide): significant increase in activity | relative mean current at higher peptide concentrations (cardiac RyR2 channel; 100 nM cis Ca2+, 1 and 10 μM peptide, +40 mV): fall | peptide concentration at which depression was seen (cardiac RyR2 channel; 100 nM cis Ca2+, +40 mV): > 100 nM | increase in relative mean current (cardiac RyR2 channel; 100 nM cis Ca2+, both positive and negative potentials): 10-20 fold | channel activity (relative mean current) (cardiac RyR2 channel; 100 μM cis Ca2+): failed to activate channels; also recorded: clearly depressed | peptide concentration of maximum effect (depression) (cardiac RyR2 channel; 100 μM cis Ca2+): 100 nM | voltage dependence of reduction in channel activity (cardiac RyR2 channel; 100 μM cis Ca2+): greater at +40 mV than −40 mV; also recorded: significantly greater at +40 mV | frequency of events (cardiac RyR2 channel; +40 mV and −40 mV): corresponding increase | effect at high peptide concentrations (cardiac RyR2 channel; +40 mV, voltage- and Ca2+-dependent): blocked the channel pore | peptide concentrations enhancing cardiac RyR activity in lipid bilayer (cardiac RyR2 channel; low concentrations): 1 to 10 nM | Ca2+-activated Ca2+ release / caffeine-activated Ca2+ release [1]: also enhanced | initial rate of Ca2+ release, peptide alone [1]: small increase | rate of Ca2+ release in the absence of activating Ca2+ or caffeine [1]: marginally enhanced

Cn1c(=O)c2c(ncn2C)n(C)c1=O [caffeine, reference compound]
initial rate of Ca2+ release ([1]; 2 mM caffeine, no peptide): 10 μmoles of Ca^2+ per mg of SR protein per min

B1: SEQ ID NO: 9 peptide (20-mer of SEQ ID NO: 2 with Arg688 replaced by the D isomer of arginine) (peptide)
peptide: TSAQKAKAEERKRRKMS[dR]GL
mean closed time at +40 mV (decrease) [2]: 80 fold | mean closed time at -40 mV (decrease) [2]: 170 fold | mean open time at both potentials (increase) [2]: 8 fold | open probability at +40 mV (increase) [2]: ~10 fold | open probability at -40 mV (increase) [2]: ~50 fold

B2: 20-mer peptide of the II-III cytoplasmic loop of skeletal DHPR alpha-1 subunit (Thr671 to Leu690) (peptide)
peptide: TSAQKAKAEERKRRKMSRGL
mean current (I'p/I'c) at 10 nM peptide, -40 mV or +40 mV [2]: ~2 fold | mean current at -40 mV (increase in 50 µM peptide) [2]: 4 fold
